Laboratory results reported in PMC10607054 (International Journal of Molecular Sciences, 2023).
Like-named read-outs stand apart in the source and are kept apart here.

How the values were obtained:
[1] = biological target: T1, AhR (Homo sapiens, UniProt P35869); experiment: cell-based Human AhR Reporter Assay System (luciferase)
T1 construct: purchased INDIGO Biosciences
T1 sequence (P35869 11-848): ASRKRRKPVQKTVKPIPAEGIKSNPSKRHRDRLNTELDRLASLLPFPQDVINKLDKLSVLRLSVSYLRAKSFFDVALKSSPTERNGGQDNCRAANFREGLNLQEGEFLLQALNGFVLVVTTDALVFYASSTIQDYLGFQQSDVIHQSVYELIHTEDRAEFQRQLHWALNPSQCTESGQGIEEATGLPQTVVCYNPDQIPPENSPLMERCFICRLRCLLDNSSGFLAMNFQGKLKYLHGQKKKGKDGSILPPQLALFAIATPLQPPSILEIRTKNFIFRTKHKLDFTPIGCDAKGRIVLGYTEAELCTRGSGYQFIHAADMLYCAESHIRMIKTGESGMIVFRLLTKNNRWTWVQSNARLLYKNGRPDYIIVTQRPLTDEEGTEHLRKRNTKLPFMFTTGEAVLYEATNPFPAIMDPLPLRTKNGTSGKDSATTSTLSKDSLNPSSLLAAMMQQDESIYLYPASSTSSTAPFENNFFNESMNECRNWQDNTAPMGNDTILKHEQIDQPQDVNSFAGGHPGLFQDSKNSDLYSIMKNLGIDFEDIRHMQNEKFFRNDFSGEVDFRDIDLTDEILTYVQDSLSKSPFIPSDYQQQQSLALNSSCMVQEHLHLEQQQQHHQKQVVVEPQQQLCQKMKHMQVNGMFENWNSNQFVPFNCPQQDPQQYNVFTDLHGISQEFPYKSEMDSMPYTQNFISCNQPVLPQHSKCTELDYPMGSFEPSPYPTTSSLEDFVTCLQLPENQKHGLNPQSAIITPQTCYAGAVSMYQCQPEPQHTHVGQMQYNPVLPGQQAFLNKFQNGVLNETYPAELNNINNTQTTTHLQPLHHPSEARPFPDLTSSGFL
Procedure: Briefly, the reporter cells were recovered using the cell recovery medium for 5 h. […] Luciferase detection reagent was added after discarding the media and luminescence was measured using a Citation 5 Cell Imaging Multi-Mode Reader (BioTek, Winooski, VT, USA).

[2] = biological target: T2, PPARγ ligand-binding domain (Homo sapiens, UniProt P37231); experiment: LanthaScreen TR-FRET PPARγ Coactivator Assay Kit (binding to PPARγ LBD); type: biochemical
T2 construct: PPARγ-LBD was added to the compounds; purchased Life Technologies Corporation
T2 sequence (P37231 238-503 limits assumed): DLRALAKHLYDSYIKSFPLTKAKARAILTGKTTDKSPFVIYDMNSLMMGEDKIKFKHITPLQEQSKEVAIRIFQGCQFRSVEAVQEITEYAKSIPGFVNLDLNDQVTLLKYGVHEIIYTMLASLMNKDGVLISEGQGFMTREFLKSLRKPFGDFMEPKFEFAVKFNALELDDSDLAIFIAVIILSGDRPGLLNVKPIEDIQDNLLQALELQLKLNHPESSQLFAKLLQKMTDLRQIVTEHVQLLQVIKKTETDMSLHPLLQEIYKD
Procedure: A PPARγ receptor binding assay was performed using the LanthaScreen™ TR-FRET PPARγ Coactivator Assay Kit (Life Technologies Corporation, Grand Island, NY, USA) following the manufacturer’s protocol. Briefly, PPARγ-LBD was added to the compounds, followed by the addition of the antibody (Tb-anti-GST) and a mixture of peptide (Fluorescein-TRAP220/DRIP-2). The reaction mixture was incubated at room temperature for 2 h or overnight.

[3] = test system: PPAR-responsive element (PPRE); experiment: PPRE-driven (J3TKpGL3, apo-AII promoter) Dual-Luciferase reporter assay in melanoma cells; type: cell-based; details: 10^−4 M, 40 h, human melanoma cells WM239A and A375P; vs non-ligand stimulated control
Procedure: The transcriptional activation of the PPRE promoter was tested using the J3TKpGL3 reporter plasmid, which contains a luciferase gene driven by the PPAR-responsive element (PPRE), which consists of three copies of the J site from the apo-AII gene promoter. The activation of PPAR elements was evaluated in melanoma cells following stimulation with a Firefly–Renilla Dual-Luciferase Reporter System (Promega, Madison, WI, USA). Experiments were carried out using human melanoma line WM239A and A375P (Trust Functional Genomics Cell Bank, London, UK) cells cultured in RPMI culture medium (ThermoFisher Scientific, Waltham, MA, USA) supplemented with 10% fetal bovine serum (EURx, Gdansk, Poland) at 37 °C, with a 5% CO2 content. […] Luciferase activity was measured using a commercial kit (Luciferase Assay System, Promega) according to the instructions of the supplier and assessed in a chemiluminometer (Synergy HT; Bio-Tek, Winooski, VT, USA)) using the Dual-Reporter Luciferase Assay System (Promega, Madison, WI, USA).

[4] = LanthaScreen TR-FRET PPARγ coactivator assay, PPARγ LBD, two independent dose responses, 3 to 4 replicas per assay, read-out: EC50 (M) PPARγ
[5] = value in Figure 3A, representative experiment, read-out: EC50 (PPARγ, representative dose response, Figure 3A)
[6] = Human AhR Reporter Assay System, two independent dose responses, 3 to 4 replicas per assay, mean ± spread (n = 2), read-out: EC50 (M) AhR
[7] = value in Figure 1, representative experiment, read-out: EC50 (AhR, representative dose response, Figure 1)

SMILES | EC50 ([1]; EC50 (AhR, representative dose response, Figure 1), value in Figure 1, representative experiment) [M] | EC50 ([1]; EC50 (M) AhR, Human AhR Reporter Assay System, two independent dose responses, 3 to 4 replicas per assay, mean ± spread (n = 2)) [M] | EC50 ([2]; EC50 (M) PPARγ, LanthaScreen TR-FRET PPARγ coactivator assay, PPARγ LBD, two independent dose responses, 3 to 4 replicas per assay) [M] | EC50 ([2]; EC50 (PPARγ, representative dose response, Figure 3A), value in Figure 3A, representative experiment) [M] | EC50 [2, 4] [M] | EC50 [2, 5] [M] | stimulation of transcriptional activity of (PPRE)3-containing ApoA-II gene promoter (luciferase, RLU) [3] | EC50 [1, 6] [M] | EC50 [1, 7] [M]
COc1ccc2[nH]cc(CCN)c2c1 [5-MTT, 5-methoxytryptamine] | 0.0005 | 0.00029 | 3e-05 | 6.3e-05 | – | – | – | – | –
COc1ccc2[nH]cc(CCNC(C)=O)c2c1 [Melatonin, N-acetyl-5-methoxytryptamine, reference compound] | – | – | – | – | 0.0012 | 0.00095 | statistically significant stimulation | – | –
COc1ccc(NC=O)c(C(=O)CCNC(C)=O)c1 [AFMK, N^1-acetyl-N^2-formyl-5-methoxykynuramine] | – | – | – | – | 0.00028 | 0.00011 | statistically significant stimulation | 4.4e-05 | 7.5e-05
N[C@@H](Cc1c[nH]c2ccc(O)cc12)C(=O)O [5(OH)tryptophan, 5-hydroxytryptophan] | – | – | – | – | – | – | statistically significant stimulation | – | –
COc1cc2c(CCNC(C)=O)c[nH]c2cc1O [6-Hydroxymelatonin, 6-hydroxymelatonin] | – | – | – | – | 0.0037 | 0.0001 | statistically significant stimulation | 3.1e-05 | 3.3e-05
